Measurements published in article PMC10326435, “Antiprotozoal activity of natural products from Nigerien plants used in folk medicine” (Frontiers in Pharmacology, 2023).
Read-outs that look alike come from different tables or passages of the source.

How the values were obtained:
[1] = tested on: T. b. rhodesiense (STIB900, trypomastigotes); assay: in vitro activity on T. b. rhodesiense, serial dilution assay; assay type: cell-based, Trypanosoma brucei rhodesiense; settings: for IC50: Trypanosoma brucei, 72 h exposure, means of two independent assays ± deviation from the mean, read-out: IC50 T. b. rhodesiense; for Selectivity index (SI) T. b. rhodesiense: SI = IC50 cytotoxicity (L6)/IC50 in T. b. rhodesiense
Method: (§1) The in vitro activity was assessed on T. b. rhodesiense (STIB900, trypomastigotes), T. cruzi (Tulahuen C2C4, intracellular amastigotes), L. donovani (MHOM-ET-67/L82, axenically grown amastigotes), P. falciparum (NF54, intraerythrocytic), and L6 cells (ATCC, CRL-1458™, rat skeletal myoblasts) as previously described ([Bernal et al., 2020]). The activities were determined in serial dilution assays with 72 h compound exposure, respectively 96 h for intracellular T. cruzi. Results are expressed in µg/mL for extracts and in µM for pure compounds. The IC50 values were determined for the compounds only when they were <50 µM.

[2] = tested on: T. cruzi (Tulahuen C2C4, intracellular amastigotes); assay: in vitro activity on T. cruzi, serial dilution assay; assay type: cell-based, Trypanosoma cruzi; settings: for IC50: Trypanosoma cruzi, TULAHUEN, 96 h, read-out: IC50 T. cruzi; for Selectivity index (SI) T. cruzi: SI = IC50 cytotoxicity (L6)/IC50 in T. cruzi
Method: as §1

[3] = tested on: L. donovani (MHOM-ET-67/L82, axenically grown amastigotes); assay: in vitro activity on L. donovani, serial dilution assay; assay type: cell-based, Leishmania donovani; settings: for IC50: Leishmania donovani, 72 h, read-out: IC50 L. donovani; for Selectivity index (SI) L. donovani: SI = IC50 cytotoxicity (L6)/IC50 in L. donovani
Method: as §1

[4] = tested on: P. falciparum (NF54, intraerythrocytic); assay: in vitro activity on P. falciparum, serial dilution assay; assay type: cell-based, Plasmodium falciparum; settings: for IC50: Plasmodium falciparum, NF54, 72 h, read-out: IC50 P. falciparum; for Selectivity index (SI) P. falciparum: SI = IC50 cytotoxicity (L6)/IC50 in P. falciparum
Method: as §1

cytotoxicity in L6 cells = assay type: cell-based, rat
Method: as §1

P. falciparum = settings: read-out: antiplasmodial activity IC50, cited from earlier work
[5] = 96 h exposure, means of two independent assays ± deviation from the mean
[6] = axenic amastigotes, 72 h exposure, means of two independent assays ± deviation from the mean
[7] = 72 h exposure, means of two independent assays ± deviation from the mean
[8] = already reported, ref Suksamrarn et al., 2006, Panseeta et al., 2011, Tuenter et al., 2017
[9] = rat, L6 cells (rat skeletal myoblasts, ATCC CRL-1458), rat skeletal myoblast (L6 cells), 72 h exposure, means of two independent assays ± deviation from the mean, read-out: IC50 Cytotoxicity

Row | Compound | IC50 ([1]; 72 h) | IC50 [2, 5] | IC50 [3, 6] | Selectivity index (SI) L. donovani [3] | IC50 [4, 7] | IC50 at 72 h (cytotoxicity in L6 cells; rat, IC50 Cytotoxicity) | IC50 (P. falciparum; [8]) | Selectivity index (SI) T. b. rhodesiense [1] | Selectivity index (SI) T. cruzi [2] | Selectivity index (SI) P. falciparum [4] | IC50 at 72 h (cytotoxicity in L6 cells; [9]) | IC50 (P. falciparum; previously evaluated, ref Kopa et al., 2014) | IC50 [1] | IC50 [2] | IC50 [3] | IC50 [4] | IC50 at 72 h (cytotoxicity in L6 cells; rat skeletal myoblast (L6 cells), 72 h exposure, means of two independent assays ± deviation from the mean, read-out: IC50 Cytotoxicity)
1 | C=C(C)[C@@H]1CC[C@]2(C(=O)O)CC[C@]3(C)[C@H](CC[C@@H]4[C@@]5(C)[C@@H](C(=O)O)[C@H](O)C(C)(C)[C@@H]5CC[C@]43C)[C@@H]12 [Compound 6, ceanothic acid] | > 50 µM | > 50 µM | 29 ± 3.3 µM | > 1.7 | > 50 µM | > 50 µM | > 20 µM |  |  |  |  |  |  |  |  |  | 
2 | CC(C)=CCC1=C(O)C(=O)c2c(O)ccc(O)c2C1=O [Compound 20] | 6.9 ± 1.3 µM | 27.4 ± 1.3 µM | 1.9 ± 0.4 µM | 7.4 | 45 ± 4.6 µM |  |  | 2.0 | 0.5 | 0.3 | 14 ± 0.4 µM | 3 µM |  |  |  |  | 
3 | CN[C@@H](C)C(=O)N[C@H](C(=O)N1CC[C@@H]2Oc3ccc(cc3)/C=C\NC(=O)[C@H](Cc3ccccc3)NC(=O)[C@H]21)C(C)C [Compound 4, mauritine F] | > 50 µM | > 50 µM | > 50 µM |  | 24.3 ± 4.5 µM | > 50 µM | 34.2 µM |  |  | > 5.5 |  |  |  |  |  |  | 
4 | CC(C)C[C@@H]1NC(=O)[C@@H](NC(=O)[C@H](Cc2c[nH]c3ccccc23)N(C)C)[C@H](C(C)C)Oc2ccc(cc2)/C=C\NC1=O [Compound 9, nummularine K] | 12.7 ± 3.8 µM | 43.6 ± 7.1 µM | > 50 µM |  | 20.7 ± 5.8 µM |  |  | 2.7 | 0.8 | 1.6 | 33.6 ± 4.9 µM |  |  |  |  |  | 
5 | CCC(C)[C@@H]1NC(=O)[C@@H]2[C@H](CCN2C(=O)[C@H](Cc2c[nH]c3ccccc23)NC(=O)[C@H](CC(C)C)NC)Oc2ccc(OC)c(c2)/C=C\NC1=O (stereo partly shown) [Compound 12, mauritine M] | 6.4 ± 2 µM | 15.7 ± 1.1 µM | > 50 µM |  | 2.6 ± 0.2 µM | 31.8 ± 7.6 µM | 3.7 µM | 5.0 | 2.0 | 12.2 |  |  |  |  |  |  | 
6 | CCC(C)[C@@H]1NC(=O)[C@@H](NC(=O)[C@H](Cc2ccccc2)N(C)C)[C@H](C(C)C)Oc2ccc(cc2)/C=C\NC1=O (stereo partly shown) [Compound 8, lotusanine A] | > 50 µM | > 50 µM | > 50 µM |  | > 50 µM |  |  |  |  |  | > 50 µM |  |  |  |  |  | 
7 | C=C(C)[C@@H]1CC[C@]2(C(=O)O)CC[C@]3(C)[C@H](CC[C@@H]4[C@@]5(C)C[C@@H](O)[C@H](OC(=O)/C=C/c6ccc(O)cc6)C(C)(C)[C@@H]5CC[C@]43C)[C@@H]12 [Compound 18, 3-O-trans-p-coumaroylalphitolic acid] | 25.9 ± 2.6 µM | 19.5 ± 0.6 µM | 3 ± 0.2 µM | 5.3 | 0.2 ± 0.04 µM | 15.8 ± 6.4 µM |  | 0.6 | 0.8 | 79.0 |  |  |  |  |  |  | 
8 | C=C(C)[C@@H]1CC[C@]2(C(=O)O)CC[C@]3(C)[C@H](CC[C@@H]4[C@@]5(C)[C@H](C=O)[C@@H](O)C(C)(C)[C@@H]5CC[C@]43C)[C@@H]12 [Compound 14, colubrinic acid] |  |  |  | > 45 |  |  |  |  |  | > 5.5 |  |  | > 50 µM | > 50 µM | 1.9 ± 0.4 µM | 15.3 ± 4.1 µM | > 50 µM
9 | CN[C@H](C)C(=O)N[C@H](C(=O)N1CC[C@@H]2Oc3ccc(OC)c(c3)/C=C\NC(=O)[C@H](Cc3ccccc3)NC(=O)[C@H]21)C(C)C [Compound 11, N-demethylamphibine H] | > 50 µM | > 50 µM | 44.8 ± 3.4 µM | > 1.5 | 14.7 ± 4.2 µM | > 50 µM | 3.6 µM |  |  | > 5.4 |  |  |  |  |  |  | 
10 | CC(C)=CC[C@@]12O[C@@H]1C(O)c1c(O)ccc(O)c1C2=O (stereo partly shown) [Compound 25] | 2.5 ± 0.1 µM | > 50 µM | 12.7 ± 5.3 µM | 1.5 | 14 ± 1.9 µM |  |  | 7.6 |  | 1.4 | 19 ± 2.3 µM |  |  |  |  |  | 
11 | CC(C)=CC[C@@]12O[C@@H]1C(=O)c1c(O)ccc(O[C@@H]3O[C@H](CO)[C@@H](O)[C@H](O)[C@H]3O)c1C2=O [Compound 26] | 9.9 ± 4.5 µM | 39.2 ± 5 µM | 3.5 ± 0.5 µM | 3.5 | 9 ± 5.4 µM |  |  | 1.2 | 0.3 | 1.4 | 12.2 ± 1.8 µM |  |  |  |  |  | 
12 | CCCCCCCCCCCCCCCC(=O)OCC(O)COP(=O)([O-])OCC[N+](C)(C)C (stereo not shown) [Compound 3, 1-palmitoyl-lysolecithin] | > 20 µM |  | > 20 µM |  | > 10 µM | > 20 µM |  |  |  |  |  |  |  | 12.1 ± 2.4 µM |  |  | 
13 | COc1cc([C@@H]2OC[C@@H]3[C@H]2CO[C@H]3c2cc(OC)c(O)c(OC)c2)cc(OC)c1O [Compound 30] | 20.2 ± 1.8 µM | 29.2 ± 11.4 µM | 13.4 ± 2.3 µM | 1.0 | 22.6 ± 2 µM | 13 ± 1.7 µM |  | 0.6 | 0.4 | 0.6 |  |  |  |  |  |  | 
14 | C=C(C)[C@H](O)CC1=C(O)C(=O)c2c(O)ccc(O)c2C1=O [Compound 22] | 36 ± 9.4 µM | > 50 µM | 7.9 ± 0.9 µM | 3.8 | > 50 µM |  |  | 0.8 |  |  | 30.4 ± 10.6 µM |  |  |  |  |  | 
15 | COc1ccc2cc1/C=C\NC(=O)[C@H](Cc1ccccc1)NC(=O)[C@@H]1[C@H](CCN1C(=O)[C@@H](NC(=O)C(C)N(C)C)C(C)C)O2 (stereo in doubt) [Compound 10, amphibine H] | 30.4 ± 4.6 µM | > 50 µM | > 50 µM |  | 15.1 ± 0.5 µM | > 50 µM |  | > 2.5 |  | > 5.3 |  |  |  |  |  |  | 
